# Measured values as given in patent US12479905B2, “Peptide used for immunotherapeutics” (3H BIO. CO., LTD., priority 2020, dated 2025).
# Non-standard residues stand in square brackets, D forms with d. No end group written: not given here. Cha = N[C@@H](CC1CCCCC1)C(=O)O; Ahx = NCCCCCC(=O)O
# What was measured:
# [1] = system: RNVPPIFNDVYWIAF (SEQ ID NO: 6); experiment: Confirmation of antibody titer in serum by ELISA using the target antigen (Experimental Example 7); type: in vivo, C57BL/6J, male mice; details: serum at 11, 16 and 19 weeks of age; ELISA antigen SEQ ID NO: 6 only; administration at 8, 10, 12 and 14 weeks
# From the text: In order to determine whether the composition for in vivo administration administered in Experimental Example 1.7 induced an antibody against the B-cell epitope, a method for confirming the antibody titer using the target antigen is as follows. In particular, the target antigen is RNVPPIFNDVYWIAF (SEQ ID NO: 6) or ApoB100. The time to confirm the antibody titer may vary as needed, and the time was specifically described for each experimental example.
# 1-1) For each injection of a composition for in vivo administration into a test subject, collect about 200 μL of blood from the subject's tail vein one week after the injection.
# 1-2) After placing the collected blood at 4° C. for one hour, perform centrifugation of the blood sample at 14,000 rpm for 10 minutes to separate the serum, which is the supernatant.
# 1-3) Dilute the target antigen to a concentration of 50 μg/100 μL in coating buffer (0.05 M, bicarbonate, pH 9.6) and add the antigen to a 96-well plate in an amount of 50 μg per well, and allow them to react overnight at 4° C. so that the peptide is coated on the wall of the well.
# 1-4) Wash the target antigen-coated plate three times using 300 μL of phosphate buffered saline (PBS)-T (0.05% with Tween-20) per well.
# 2-1) Add 300 μL of a 0.5% casein blocking solution per well in the plate, and allow to react overnight at 4° C.
# 2-2) Wash the plate three times with 300 μL of PBS-T per well.
# 3-1) As the primary antibody reaction, dilute the separated serum to an appropriate concentration, add it in an amount of 100 μL per well, and allow to react at 37° C. for one hour. In particular, after the initial injection, subject the serum to serial dilution by diluting the same to 1/20 to 1/1,000 in the experiment, and 1/500 to 1/10,000 depending on the subject during the experiment after the second to third injections. As a positive control, use a monoclonal antibody against the peptide of SEQ ID NO: 41 after purification.
# 3-2) After the reaction of 3-1, wash the plate three times with 300 μL of PBS-T per well.
# 4-1) As a secondary antibody reaction, add 100 μL of horseradish peroxidase (HRP) conjugated to anti-mouse IgG antibody recognizing a mouse antibody per well, and allow them to react at 37° C. for one hour.
# 4-2) After the reaction of 4-1), wash the plate three times with 300 μL of PBS-T per well.
# 5-1) Add 100 μL of a o-phenylenediamine dihydrochloride (OPD) solution per well, and allow to react at 37° C. for 10 minutes, and measure the absorbance at OD 450 nm (Synergy HT microplate reader, BioTek).
# Obtain the antibody titer in serum by converting the extinction coefficient, which is measured based on 1 mg/mL concentration of the monoclonal antibody against the target antibody as a positive control.
# (2) According to Experimental Example 1.9, the antibody titers observed in a test subject for each experimental group at 11 weeks, 16 weeks, and 19 weeks were confirmed. In particular, the target antigen was determined using RNVPPIFNDVYWIAF (SEQ ID NO: 6).
# [2] = Weight measurement of high-fat-diet mice after in vivo administration of peptide composition (Experimental Example 7); details: C57BL/6J male, high-fat diet after 10 weeks; intramuscular administration at 8, 10, 12 and 14 weeks of age; 50 μg peptide/100 μL with PHAD and Alhydrogel
# From the text: In order to test the effect of the composition for in vivo administration prepared in Experimental Example 1.5, C57BL/6, Balbc and/or ICR species were used as experimental mice (purchased from Central Lab Animal Inc.). Although there were some differences in species, the mice purchased were 7-week-old on average and they were acclimatized for one week, and were used for experiments when they were 8 weeks of age. Experimental mice were reared under the conditions of a constant temperature and humidity environment within the temperature range of 23±1° C., relative humidity of 50±5%, and an environment controlled as 12-hour light room/12 hour dark room. Drinking water and food were provided ad libitum. In the case of a normal diet (purchased from Central Lab Animal Inc.), it consisted of 20% protein, 70% carbohydrate, and 10% fat based on total calories, whereas in the case of an obesity-inducing diet (purchased from Research diets), it consisted of a high-fat diet including 20% protein, 20% carbohydrate, and 60% fat based on total calories. Experimental mice were divided into each group to have different dietary conditions and composition administration conditions, and experiments were performed with the number of individuals that could be statistically processed for each experimental group. Detailed conditions are as disclosed in each specific experimental example.
# For a test subject prepared in Experimental Example 1.6, different compositions were administered for each experimental group. All administration compositions were administered by an intramuscular injection method, and after disinfecting muscles of both thighs of each mouse with an alcohol swab, 50 μL each with a total amount of 100 μL was injected.
# From the time of arrival to the end of the experiment for each experimental group of mice, the average was calculated after measuring three times per week to obtain the average weight value for each week. After completion of the experiment, each mouse was anesthetized, organs were dissected, and weights were measured, and the average was obtained for each experimental group.
# According to Experimental Example 1.7, the composition for in vivo administration was administered to the test subject. In particular, the administration cycle was as follows: 8 weeks, 10 weeks, 12 weeks, and 14 weeks of age.
# (1) According to Experimental Example 1.8, the weight of a test subject for each experimental group was measured.
Substance,antibody titer to RNVPPIFNDVYWIAF (SEQ ID NO: 6) [1],weight loss effect compared to the control group (Obese) [2]
GSHHHHHHGSDDDDKZaK(Cha)VAAWTLKAAaZRNVPPIFNDVYWIAF (GSHHHHHHGSDDDDK[Ahx][dA]K[Cha]VAAWTLKAA[dA][Ahx]RNVPPIFNDVYWIAF) [P3],observed,weight loss effect appeared
KTTKQSFDLSVKAQYKKNKHZaK(Cha)VAAWTLKAAaZCRFRGLISLSQVYLS (KTTKQSFDLSVKAQYKKNKH[Ahx][dA]K[Cha]VAAWTLKAA[dA][Ahx]CRFRGLISLSQVYLS) [P4],,there was a weight loss effect
RNVPPIFNDVYWIAFK(Cha)VAAWTLKAA (RNVPPIFNDVYWIAFK[Cha]VAAWTLKAA) [P8],shown,weight loss effect was shown
RNVPPIFNDVYWIAFZaK(Cha)VAAWTLKAAaZGSHHHHHHGSDDDDK (RNVPPIFNDVYWIAF[Ahx][dA]K[Cha]VAAWTLKAA[dA][Ahx]GSHHHHHHGSDDDDK) [P2],observed,weight loss effect appeared
RNVPPIFNDVYWIAFZaK(Cha)VAAWTLKAAaZCRFRGLISLSQVYLS (RNVPPIFNDVYWIAF[Ahx][dA]K[Cha]VAAWTLKAA[dA][Ahx]CRFRGLISLSQVYLS) [P1],"there were individuals showing a large antibody titer depending on the individual, and there were also individuals which showed no antibody titer",weight loss effect
RNVPPIFNDVYWIAFZaK(Cha)VAAWTLKAAaZ (RNVPPIFNDVYWIAF[Ahx][dA]K[Cha]VAAWTLKAA[dA][Ahx]) [P7],observed,weight loss effect appeared
RNVPPIFNDVYWIAFK(Cha)VAAWTLKAAHHHHHH (RNVPPIFNDVYWIAFK[Cha]VAAWTLKAAHHHHHH) [P9],observed,weight loss effect appeared
RNVPPIFNDVYWIAFCRFRGLISLSQVYLSZaK(Cha)VAAWTLKAAaZ (RNVPPIFNDVYWIAFCRFRGLISLSQVYLS[Ahx][dA]K[Cha]VAAWTLKAA[dA][Ahx]) [P5],,a weight loss effect is observed
